{"source": "the OligoGym collection", "note": "Where “and” joins values, the source holds several entries; their conditions need not be identical. Equal entries are not always repeated. After the bases stand the sugars from the 5' end (letter, count) and the backbone: PS all phosphorothioate, else s phosphorothioate and o phosphodiester by linkage. Methylation of C is not given here. e = 2'-O-(2-methoxyethyl) (MOE); k = constrained ethyl (cEt); d = 2'-deoxy (DNA)"}
{"target": "IRF4", "settings": "ASO, MM.1R, 1 µM"}
{"sequence": "TTCATGTAAAGTCTGC (sugars kkdddddddddkekek, PS)", "target mRNA inhibition": "10% and 12%"}
{"sequence": "TTCATTAGAAAGCCCT (sugars k3 d10 k3, PS)", "target mRNA inhibition": "-22%"}
{"sequence": "TTCTAGTCGCGCAAGT (sugars k3 d10 k3, PS)", "target mRNA inhibition": "-7%"}
{"sequence": "TTGATGTGATAGCTGA (sugars kkdddddddddkdkdk, PS)", "target mRNA inhibition": "36%"}
{"sequence": "TTGGTTGGCTGGTCTT (sugars k2 d9 e3 k2, PS)", "target mRNA inhibition": "50%"}
{"sequence": "TTGGTTGGCTGGTCTT (sugars kddddddddddkekek, PS)", "target mRNA inhibition": "34%"}
{"sequence": "TTGGTTGGCTGGTCTT (sugars kkdddddddddkekek, PS)", "target mRNA inhibition": "65%"}
{"sequence": "TTGTTTGCAAGCTATA (sugars k3 d10 k3, PS)", "target mRNA inhibition": "36%"}
{"sequence": "TTTAAGAGGCGACTGC (sugars k3 d10 k3, PS)", "target mRNA inhibition": "-100%"}
{"sequence": "TTTATGTTAGCCAATT (sugars kddddddddddkekek, PS)", "target mRNA inhibition": "0% and -12%"}
{"sequence": "TTTATGTTAGCCAATT (sugars kkdddddddddekeke, PS)", "target mRNA inhibition": "12% and -13%"}
{"sequence": "TTTCTAATGGTGCTCC (sugars k3 d10 k3, PS)", "target mRNA inhibition": "4%"}
{"sequence": "TTTCTACAAGGTCTGA (sugars k3 d10 k3, PS)", "target mRNA inhibition": "3%"}
{"target": "IRF4", "settings": "ASO, MM.1R, 2 µM", "units": {"target mRNA inhibition": "%"}}
{"sequence": "TTCCAGGTCATTTGAC (sugars k3 d10 k3, PS)", "target mRNA inhibition": 27}
{"target": "IRF4", "settings": "ASO, MM.1R, 4 µM", "units": {"target mRNA inhibition": "%"}}
{"sequence": "TGTATTACTCTTAGGC (sugars k3 d10 k3, PS)", "target mRNA inhibition": 68}
{"target": "IRF4", "settings": "ASO, SK-MEL-28, 4 µM", "units": {"target mRNA inhibition": "%"}}
{"sequence": "TGTAGGGCGACTAACT (sugars k3 d10 k3, PS)", "target mRNA inhibition": 21}
{"sequence": "TGTATACATCACTGCA (sugars k3 d10 k3, PS)", "target mRNA inhibition": 63}
{"sequence": "TGTATAGTTCTCAACC (sugars k3 d10 k3, PS)", "target mRNA inhibition": 43}
{"sequence": "TGTATTTATGCCCTCG (sugars k3 d10 k3, PS)", "target mRNA inhibition": 44}
{"sequence": "TGTCCAGCTGGCTCCG (sugars k3 d10 k3, PS)", "target mRNA inhibition": 39}
{"sequence": "TGTCGATGCCTTCTCG (sugars k3 d10 k3, PS)", "target mRNA inhibition": 28}
{"sequence": "TGTGAACCTGCTGGGC (sugars k3 d10 k3, PS)", "target mRNA inhibition": 2}
{"sequence": "TGTGACATAAAGGACC (sugars k3 d10 k3, PS)", "target mRNA inhibition": 27}
{"sequence": "TGTGTCAAAGAGCTTG (sugars k3 d10 k3, PS)", "target mRNA inhibition": 22}
{"sequence": "TGTTAGCTACAAAGAG (sugars k3 d10 k3, PS)", "target mRNA inhibition": 47}
{"sequence": "TTAAAATATCGCCCAT (sugars k3 d10 k3, PS)", "target mRNA inhibition": 32}
{"sequence": "TTAAACAGCACTCAGA (sugars k3 d10 k3, PS)", "target mRNA inhibition": 33}
{"sequence": "TTAAATAAGATCCCAC (sugars k3 d10 k3, PS)", "target mRNA inhibition": 23}
{"sequence": "TTAACCATTACTTAGA (sugars k3 d10 k3, PS)", "target mRNA inhibition": 45}
{"sequence": "TTAAGCTAAACTCCTA (sugars k3 d10 k3, PS)", "target mRNA inhibition": 10}
{"sequence": "TTACCATTTTCACAAG (sugars k3 d10 k3, PS)", "target mRNA inhibition": 8}
{"sequence": "TTAGAAAGCCCTCACC (sugars k3 d10 k3, PS)", "target mRNA inhibition": -16}
{"sequence": "TTAGAGAGGAGAATTT (sugars k3 d10 k3, PS)", "target mRNA inhibition": 35}
{"sequence": "TTAGCAATTCCTGTTG (sugars k3 d10 k3, PS)", "target mRNA inhibition": 20}
{"sequence": "TTAGGATAATATACCC (sugars k3 d10 k3, PS)", "target mRNA inhibition": 52}
{"sequence": "TTCAACACACTGTCTG (sugars k3 d10 k3, PS)", "target mRNA inhibition": -31}
{"sequence": "TTCAACTTGTGACCCA (sugars k3 d10 k3, PS)", "target mRNA inhibition": 49}
{"sequence": "TTCAAGAGGAACTAGT (sugars k3 d10 k3, PS)", "target mRNA inhibition": 6}
{"sequence": "TTCAGTGCTCACTGCT (sugars k3 d10 k3, PS)", "target mRNA inhibition": 69}
{"sequence": "TTCCAGCTTAGTCACC (sugars k3 d10 k3, PS)", "target mRNA inhibition": 37}
{"sequence": "TTCCAGGTCATTTGAC (sugars k3 d10 k3, PS)", "target mRNA inhibition": 66}
{"sequence": "TTCCATTGGAGGAGGG (sugars k3 d10 k3, PS)", "target mRNA inhibition": 28}
{"sequence": "TTGCAAGCTATATTAA (sugars k3 d10 k3, PS)", "target mRNA inhibition": 34}
{"sequence": "TTGCATAGGCATCCTT (sugars k3 d10 k3, PS)", "target mRNA inhibition": 47}
{"sequence": "TTGCATCTATAAGATG (sugars k3 d10 k3, PS)", "target mRNA inhibition": 31}
{"sequence": "TTGCATGGCTAATGAA (sugars k3 d10 k3, PS)", "target mRNA inhibition": 42}
{"sequence": "TTGGCTCCTTTTTTGG (sugars k3 d10 k3, PS)", "target mRNA inhibition": 13}
{"sequence": "TTGTACAGGACAGGTA (sugars k3 d10 k3, PS)", "target mRNA inhibition": 28}
{"sequence": "TTGTTCCACCCCTGGG (sugars k3 d10 k3, PS)", "target mRNA inhibition": 47}
{"sequence": "TTTAAGGCCCTGTCAA (sugars k3 d10 k3, PS)", "target mRNA inhibition": -17}
{"sequence": "TTTACACTGGATCTGA (sugars k3 d10 k3, PS)", "target mRNA inhibition": 25}
{"sequence": "TTTACCTGGTATTGCT (sugars k3 d10 k3, PS)", "target mRNA inhibition": 38}
{"sequence": "TTTATAACCGGTAGAG (sugars k3 d10 k3, PS)", "target mRNA inhibition": 54}
{"sequence": "TTTGTACGGGTCTGAG (sugars k3 d10 k3, PS)", "target mRNA inhibition": 20}
{"sequence": "TTTTACCTGGTATTGC (sugars k3 d10 k3, PS)", "target mRNA inhibition": -2}
{"sequence": "TTTTTAGTTCATACCC (sugars k3 d10 k3, PS)", "target mRNA inhibition": 41}
{"sequence": "TTTTTCTCACCATGGC (sugars k3 d10 k3, PS)", "target mRNA inhibition": 74}
